The values that follow come from patent publication US20100056524A1, “Compound” (priority 2008, published 2010).

The target in one experiment is T1, MARK3 (Homo sapiens, UniProt P27448).
T1 construct: All protein kinases were of human origin and encoded full length proteins, unless indicated otherwise; His6; made in house; host or cells: Sf21 insect cells
The experiment can be described thus: MARK3 protein kinase assay. The note with it: for remaining activity at 1 µM: 1 μM compound; for remaining activity at 10 µM: 10 μM compound; for residual kinase activity MARK3: 1 μm compound. It counts as biochemical. An excerpt:
(§1) All protein kinases were of human origin and encoded full length proteins, unless indicated otherwise. They were either expressed as glutathione S-transferase (GST) fusion proteins in Escherichia Coli or as hexahistidine (His6)-tagged proteins in insect Sf21 cells. GST fusion proteins were purified by affinity chromatography on glutathione-Sepharose, and His6-tagged proteins on nickel/nitriloacetate-agarose. The procedures for expressing some of the protein kinases used herein have been detailed previously.^8,9 The following sections outline the DNA vectors synthesised and the procedures used to express and purifying protein kinases that have not been reported previously.
The following kinases were expressed in Sf21 cells: Aurora B and Aurora C, extra-cellular signal-regulated kinase 8 (ERK8), microtubule affinity regulating kinase 3 (MARK3), protein kinase Bα[118-480][S473D], protein kinase Bβ (PKBβ[120-481][S474D], 3-phosphoinositide-dependent protein kinase-1 [52-556]
(§2) All assays (25.5 μl) were carried out at room temperature (21° C.) and were linear with respect to time and enzyme concentration under the conditions used. Assays were performed for 30 min using Multidrop Micro reagent dispensers (Thermo Electron Corporation, Waltham, Mass. 02454, USA) in a 96-well format. The concentration of magnesium acetate in the assays was 10 mM and the [γ-33P] ATP (800 cpm/pmol) was used at 5, 20 or 50 μM as indicated, in order to be at or below the Km for ATP for each enzyme. Protein kinases assayed at 5 μM ATP were: —ERK1, ERK8, PKBα, MARK3, Aurora C. Protein kinases assayed at 20 μM ATP were: —JNK1, PDK1, CHK1, CHK2, CDK2 and Aurora B. Protein kinases assayed at 50 μM ATP were: —MNK2, IKKepsilon and TBK1.
(§3) The assays were initiated with MgATP, stopped by addition of 5 μl of 0.5 M orthophosphoric acid and spotted on to P81 filterplates using a unifilter harvester (PerkinElmer, Boston, Mass. 02118, USA). The IC50 values of inhibitors were determined after carrying out assays at 10 different concentrations of each compound.
ERK1 and ERK8 were both assayed against myelin basic protein (MBP, 0.33 mg/ml). MARK3 was assayed against the peptide […] (300 μM), MNK2 against the eIF4E protein (0.5 mg/ml). PKBβ was assayed against the peptide […] (30 μM). TBK1 were assayed against ([…]) (300 μM). The substrates used for other protein kinases were described previously.^8,9
(§4) Unless stated otherwise, enzymes were diluted in 50 mM Tris/HCl pH 7.5, 0.1 mM EGTA, 1 mg/ml BSA, 0.1% (v/v) 2-mercaptoethanol and assayed in 50 mM Tris/HCl pH 7.5, 0.1 mM EGTA, 0.1% (v/v) 2-mercaptoethanol.

In a further experiment the test system is CK2. The experiment can be described thus: CK2 protein kinase assay. In kind it is biochemical, human. The note with it: for residual kinase activity: CK2.
From the text: as §1, §2, §3, §4

For the next experiment, the target named is T2, P38b MAPK (Homo sapiens, UniProt Q15759).
T2 construct: All protein kinases were of human origin and encoded full length proteins, unless indicated otherwise; made in house
T2 sequence (Q15759 whole entry): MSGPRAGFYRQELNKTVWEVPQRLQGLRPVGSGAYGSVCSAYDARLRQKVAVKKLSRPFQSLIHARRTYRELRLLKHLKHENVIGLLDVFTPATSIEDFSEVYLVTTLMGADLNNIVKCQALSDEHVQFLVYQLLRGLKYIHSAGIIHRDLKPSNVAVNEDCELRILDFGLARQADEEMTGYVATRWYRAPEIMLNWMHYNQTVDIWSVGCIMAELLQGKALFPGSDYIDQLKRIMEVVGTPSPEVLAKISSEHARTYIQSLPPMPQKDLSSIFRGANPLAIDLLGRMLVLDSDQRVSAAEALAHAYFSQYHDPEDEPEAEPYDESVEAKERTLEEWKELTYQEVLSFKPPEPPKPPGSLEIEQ
Description: P38b MAPK protein kinase assay. It counts as biochemical. The note with it: for remaining activity at 1 µM: 1 μM compound; for remaining activity at 10 µM: 10 μM compound; for residual kinase activity P38b MAPK: 1 μm compound.
From the text: as §1, §2, §3, §4

For another experiment, the target named is T3, PAK6 (Homo sapiens, UniProt Q9NQU5).
T3 construct: All protein kinases were of human origin and encoded full length proteins, unless indicated otherwise; made in house
T3 sequence (Q9NQU5 whole entry): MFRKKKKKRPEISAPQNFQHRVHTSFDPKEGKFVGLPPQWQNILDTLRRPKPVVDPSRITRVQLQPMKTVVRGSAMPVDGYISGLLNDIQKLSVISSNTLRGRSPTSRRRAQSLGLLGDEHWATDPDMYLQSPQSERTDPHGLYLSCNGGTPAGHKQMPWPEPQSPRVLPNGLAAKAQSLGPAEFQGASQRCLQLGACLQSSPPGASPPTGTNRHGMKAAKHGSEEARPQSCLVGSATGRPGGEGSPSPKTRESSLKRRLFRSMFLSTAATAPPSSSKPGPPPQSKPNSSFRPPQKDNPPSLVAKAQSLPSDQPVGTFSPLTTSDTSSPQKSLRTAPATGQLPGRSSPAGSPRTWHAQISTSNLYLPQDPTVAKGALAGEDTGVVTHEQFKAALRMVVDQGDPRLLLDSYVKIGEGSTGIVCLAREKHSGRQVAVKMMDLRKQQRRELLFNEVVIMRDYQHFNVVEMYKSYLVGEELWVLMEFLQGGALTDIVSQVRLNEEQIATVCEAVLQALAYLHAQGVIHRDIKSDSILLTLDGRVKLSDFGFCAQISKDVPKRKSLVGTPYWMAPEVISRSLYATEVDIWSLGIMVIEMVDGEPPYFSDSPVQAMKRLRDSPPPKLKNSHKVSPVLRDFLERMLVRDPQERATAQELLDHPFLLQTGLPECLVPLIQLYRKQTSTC
The experiment can be described thus: PAK6 protein kinase assay. The following applies: for remaining activity at 1 µM: 1 μM compound; for remaining activity at 10 µM: 10 μM compound; for residual kinase activity PAK6: 1 μm compound. It counts as biochemical.
From the text: as §1, §2, §3, §4

In experiment [1] the test system is panel of different kinases. The experiment can be described thus: Selectivity across kinase panel (Gini coefficient). It counts as biochemical, human. The note with it: for GINI Coefficient: value between 0 and 1, higher = more selective. An excerpt:
Table compares the activity of Example 23 with cyclobutanecarboxylic acid {3-[5-bromo-2-(3-fluoro-phenylamino)-pyrimidin-4-ylamino]-propyl}-amide (Compound A)^13, against a panel of different kinases, where the residual kinase activity, in %, at two concentrations of the compounds is expressed. The higher the percentage residual activity, the lower the degree of inhibition of the kinase.

The mark [2] stands for this setting: MARK3, 5 μM ATP, read-out: residual kinase activity.
[3] abbreviates: P38b MAPK, read-out: residual kinase activity.
Setting [4] is: PAK6, read-out: residual kinase activity.
Where [5] appears, read: read-out: residual kinase activity MARK3.
Setting [6] is: read-out: residual kinase activity P38b MAPK.
Where [7] appears, read: read-out: residual kinase activity PAK6.

SMILES strings stand for the structures. Where a name gives a salt, the structure may show the parent alone. Read-outs that look alike come from different tables or passages of the source.

T1 sequence (P27448 whole entry): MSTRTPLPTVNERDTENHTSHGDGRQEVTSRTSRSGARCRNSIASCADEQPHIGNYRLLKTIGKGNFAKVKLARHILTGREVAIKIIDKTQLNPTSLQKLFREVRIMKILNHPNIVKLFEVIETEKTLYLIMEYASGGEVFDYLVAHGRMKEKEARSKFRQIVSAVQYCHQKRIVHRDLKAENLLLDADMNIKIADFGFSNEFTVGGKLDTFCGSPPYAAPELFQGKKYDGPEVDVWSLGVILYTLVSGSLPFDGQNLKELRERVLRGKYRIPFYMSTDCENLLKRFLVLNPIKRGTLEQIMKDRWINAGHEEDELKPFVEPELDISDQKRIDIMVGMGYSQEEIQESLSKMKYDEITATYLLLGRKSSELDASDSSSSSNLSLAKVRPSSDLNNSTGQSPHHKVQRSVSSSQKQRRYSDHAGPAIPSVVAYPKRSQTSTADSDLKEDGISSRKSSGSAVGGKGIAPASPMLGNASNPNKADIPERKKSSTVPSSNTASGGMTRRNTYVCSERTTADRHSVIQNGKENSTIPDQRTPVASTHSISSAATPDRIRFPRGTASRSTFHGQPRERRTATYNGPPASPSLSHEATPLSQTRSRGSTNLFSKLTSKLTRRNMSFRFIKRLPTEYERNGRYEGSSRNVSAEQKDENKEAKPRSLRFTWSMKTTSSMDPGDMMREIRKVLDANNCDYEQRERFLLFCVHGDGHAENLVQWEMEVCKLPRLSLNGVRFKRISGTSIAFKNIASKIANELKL

For the molecule `O=C(NCCCNc1nc(Nc2cccnc2)ncc1C1CC1)c1cccs1` [Example 50, Thiophene-2-carboxylic acid {3-[5-cyclopropyl-2-(pyridin-3-ylamino)-pyrimidin-4-ylamino]-propyl}-amide], the remaining activity at 1 µM on MARK3 (setting [2]) was found to be 13%; on P38b MAPK (setting [3]) it was 99%; at PAK6 (setting [4]), 78%. Also, the remaining activity at 10 µM is 2% at MARK3 (setting [2]), 89% at P38b MAPK (setting [3]) and 50% on PAK6 (setting [4]). For the same molecule, the residual kinase activity in the experiment on CK2 (1 μM compound) amounted to 72%; with CK2 (10 μM compound) it was 80%.
Take `O=C(NCCCNc1nc(Nc2cccc(F)c2)ncc1Br)C1CCC1` [Compound A, cyclobutanecarboxylic acid {3-[5-bromo-2-(3-fluoro-phenylamino)-pyrimidin-4-ylamino]-propyl}-amide, reference compound]: the entries for the “GINI Coefficient” value in experiment [1] (@ 10 μM) and in experiment [1] (in words) were 0.19 and “significantly lower value than Example 23”, respectively. For the same molecule, the remaining activity at 10 µM at MARK3 (setting [5]) came to 2%; at P38b MAPK (setting [6]) it was 80%; on PAK6 (setting [7]), 14%. Also, at MARK3, the “residual kinase activity MARK3” value is given as 3%. Besides, the entries for the “residual kinase activity CK2” value in the experiment on CK2 (10 μM compound) and in the experiment on CK2 (1 μm compound) were 44% and 77%, respectively. Besides, the “residual kinase activity P38b MAPK” value at P38b MAPK is 96%. Also, the “residual kinase activity PAK6” value on PAK6 amounted to 45%.
Consider `O=C(NCCCNc1nc(Nc2cccc(F)c2)ncc1C1CC1)C1CCC1` [Example 23, Cyclobutanecarboxylic acid {3-[5-cyclopropyl-2-(3-fluoro-phenylamino)-pyrimidin-4-ylamino]-propyl}-amide], for which, in experiment [1] (@ 10 μM), the “GINI Coefficient” value stood at 0.35. For the same molecule, the “selectivity across kinase panel” value in experiment [1] (in words) is “significant improvement of selectivity across this kinase panel”. Further, the remaining activity at 10 µM at MARK3 (setting [5]) came out at 1%; on MARK3 (setting [2]) it was 1%; on P38b MAPK (setting [6]), 92%; at P38b MAPK (setting [3]), 92%; on PAK6 (setting [7]), 50%; at PAK6 (setting [4]) it was 50%. The “residual kinase activity MARK3” value on MARK3 is 0%. The remaining activity at 1 µM is 0% at MARK3 (setting [2]), 86% on P38b MAPK (setting [3]) and 82% on PAK6 (setting [4]). Moreover, the results for the “residual kinase activity CK2” value in the experiment with CK2 (10 μM compound) and with CK2 (1 μm compound) were 107% and 111%, respectively. Moreover, the residual kinase activity with CK2 (1 μM compound) was determined as 111%; in the experiment with CK2 (10 μM compound), 107%. Also, the “residual kinase activity P38b MAPK” value at P38b MAPK worked out at 86%. The “residual kinase activity PAK6” value on PAK6 worked out at 82%.
Turning to `O=C(NCCCNc1nc(Nc2cccc(N3CCCC3=O)c2)ncc1C1CC1)c1cccs1` [Example 47, Thiophene-2-carboxylic acid (3-{5-cyclopropyl-2-[3-(2-oxo-pyrrolidin-1-yl)-phenylamino]-pyrimidin-4-ylamino}-propyl)-amide. Hydrochloride salt], the results for the remaining activity at 1 µM at MARK3 (setting [2]), at P38b MAPK (setting [3]) and on PAK6 (setting [4]) were 15%, 99% and 77%, respectively. The remaining activity at 10 µM on MARK3 (setting [2]) was 4%; on P38b MAPK (setting [3]) it was 90%; at PAK6 (setting [4]), 85%. The residual kinase activity was found to be 80% with CK2 (1 μM compound) and 78% in the experiment with CK2 (10 μM compound).
